Marks after values point to notes of the source that are not given here.
The compounds below were run against T1, recombinant Axl tyrosine kinase (Homo sapiens, UniProt P30530) (assay: In vitro Axl kinase assay (AlphaScreen), Test (a)). Settings: Test (a); read-out: IC50 versus Axl tyrosine kinase.
T1 construct: encompassing amino acids 473 to 894 of Axl; GST (N); made in house; host or cells: SF126 insect cells
T1 sequence (P30530 473-894): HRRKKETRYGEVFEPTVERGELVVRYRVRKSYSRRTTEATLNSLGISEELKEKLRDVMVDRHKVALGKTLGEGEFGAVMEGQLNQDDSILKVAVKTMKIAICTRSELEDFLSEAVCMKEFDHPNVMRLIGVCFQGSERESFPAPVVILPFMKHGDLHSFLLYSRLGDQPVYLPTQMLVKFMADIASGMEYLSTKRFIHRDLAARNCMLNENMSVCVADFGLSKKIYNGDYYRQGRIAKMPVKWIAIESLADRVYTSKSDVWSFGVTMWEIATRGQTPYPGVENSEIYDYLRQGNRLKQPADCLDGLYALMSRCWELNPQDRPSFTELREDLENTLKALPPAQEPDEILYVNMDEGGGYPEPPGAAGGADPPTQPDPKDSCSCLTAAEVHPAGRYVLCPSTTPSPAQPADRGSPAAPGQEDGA
Type: biochemical
Protocol: Test compounds were prepared as 10 mM stock solutions in dimethylsulphoxide (DMSO) and diluted in DMSO as required. Aliquots (120 nl) of compound dilutions were filled into the wells of a Greiner 384-well low volume (LV) white polystyrene plate (Greiner Bio-one) using acoustic dispensing (Labcyte Echo 550). A 10 μl mixture of recombinant purified Axl enzyme, biotinylated peptide substrate (Biotin poly-GAT; CisBio, Catalogue No. 61GATBLB), 0.2 μM adenosine triphosphate (ATP) and a buffer solution [comprising 20 mM Tris-HCl pH 7.5 buffer, 0.01% v/v Tween, 5 mM dithiothreitol (DTT) and 10 mM manganese chloride] was incubated with the compounds at room temperature for 20 minutes.
Control wells that produced a minimum signal corresponding to 100% inhibited enzyme were created by adding 10 μM of Staurosporine.
The percentage kinase inhibition value is the percentage of Axl tyrosine kinase activity inhibited by the test compound at a concentration of 1 μM.

Row | Compound | IC50 [nM]
1 | COCc1nn(C2CCN(C(=O)[C@H](C)O)CC2)cc1-c1cnc(N)c(-c2nc3ccccc3o2)c1 [Example 67.1] | ~0.7

Same assay, conditions: test compound at 1 μM; first value quoted

Row | Compound | % Axl tyrosine kinase inhibition at 1 μM concentration
2 | CC(O)c1nn(C2CCN(C)CC2)cc1-c1cnc(N)c(-c2nc3ccccc3o2)c1 (stereo not shown) [Example 41.29] | 99.9%
3 | CS(=O)(=O)c1cccc(-c2cnc(N)c(-c3nc4ccccc4o3)n2)c1 [Example 20.9] | 92.1%
4 | N#Cc1nn(C2CCNCC2)cc1-c1cnc(N)c(-c2nc3ccccc3o2)c1 [Example 62.1] | 100.0%
5 | CC(=O)Nc1cccc(-c2cnc(N)c(-c3nc4ccccc4o3)c2)c1 [Example 2.20] | 97.6%
6 | COCc1nn(C2CCN(C(=O)[C@H](C)O)CC2)cc1-c1cnc(N)c(-c2nc3ccccc3o2)c1 [Example 67.1] | 100.0%
7 | N#CCc1cccc(-c2cnc(N)c(-c3nc4ccccc4o3)c2)c1 [Example 2.47] | 98.0%
8 | Nc1ncc(-c2ccc(C(=O)N3CCCC(N)CC3)cc2)cc1-c1nc2cccnc2o1 (stereo not shown) [Example 45A.95] | 99.5%
9 | CN1CCN(C(=O)c2ccc(-c3cnc(N)c(-c4nc5ncccc5o4)c3)cc2)CC1 [Example 45B.2] | 96.1%
10 | Nc1ncc(-c2cccc3ccccc23)cc1-c1nc2ccccc2o1 [Example 2.43] | 9.8*** %
11 | Nc1ncc(-c2cnn(CCCN3CCCC3)c2)cc1-c1nc2ccccc2o1 [Example 27.2] | 99.9%
12 | Nc1ncc(-c2ccc(C(=O)N3CCC(O)CC3)cc2)cc1-c1nc2cnccc2o1 [Example 8A.8] | 97.1%
13 | Nc1ncc(-c2cccc(CN3CCCC3)c2)cc1-c1nc2cnccc2o1 [Example 8A.1] | 95.6%
14 | CN1CCN(C(=O)c2cccc(-c3cnc(N)c(-c4nc5ncccc5o4)c3)c2)CC1 [Example 10A.8] | 57.4%
15 | COCC(=O)N1CCC(n2cc(-c3cnc(N)c(-c4nc5cccnc5o4)c3)cn2)CC1 [Example 57.5] | 99.8%
16 | Nc1ncc(-c2cccc(CN3CCCC3)c2)cc1-c1nc2cccnc2o1 [Example 9A.8] | 96.5%
17 | NC(=O)c1ccc(-c2cnc(N)c(-c3nc4cnccc4o3)c2)cc1 [Example 8A.9] | 98.7%
18 | CN1CCC(n2cc(-c3cnc(N)c(-c4nc5ccccc5o4)c3)c(C(N)=O)n2)CC1 [Example 41.35] | 99.8%
19 | CC1CCN(CCCNC(=O)c2ccc(-c3cnc(N)c(-c4nc5cccnc5o4)c3)cc2)CC1 [Example 45A.46] | 99.1%
20 | Nc1ncc(-c2ccc(C(=O)NCCCN3CC[C@@H](F)C3)cc2)cc1-c1nc2cccnc2o1 [Example 45A.39] | 98.4%
21 | Nc1ncc(-c2cccc(C(=O)NC3CC3)c2)cc1-c1nc2cccnc2o1 [Example 9A.17] | 73.2%
22 | Nc1ncc(-c2cccc(N3CCCCC3)c2)cc1-c1nc2ncccc2o1 [Example 10A.17] | 40.3%
23 | Nc1ncc(-c2ccc(OCCOC3CNC3)cc2)cc1-c1nc2ncccc2o1 [Example 43B.39] | 98.2%
24 | Nc1ncc(-c2ccc(C(=O)NCCCn3ccnc3)cc2)cc1-c1nc2cccnc2o1 [Example 45A.53] | 98.8%

Row | Compound | % Axl tyrosine kinase inhibition at 1 μM concentration
25 | CS(=O)(=O)Oc1cccc(-c2cnc(N)c(-c3nc4ccccc4o3)n2)c1 [Example 20.18] | 98.1%
26 | Nc1ncc(-c2cnn(C3CCN(C(=O)CO)CC3)c2)cc1-c1nc2ccccc2o1 [Example 34.2] | 100.0%
27 | N#CCc1cccc(-c2cnc(N)c(-c3nc4ccccc4o3)n2)c1 [Example 20.16] | 99.6%
28 | COc1cc(-c2cnc(N)c(-c3nc4ncccc4o3)c2)ccc1OC1CCN(C)CC1 [Example 43C.11] | 98.9%
29 | CN(C)CCCN(C)C(=O)c1ccc(-c2cnc(N)c(-c3nc4cccnc4o3)c2)cc1 [Example 45A.54] | 97.8%
30 | CN(C)c1cccc(-c2cnc(N)c(-c3nc4ccccc4o3)n2)c1 [Example 20.15] | 96.9%
31 | CN(C)CCn1cc(-c2cnc(N)c(-c3nc4ccccc4o3)c2)cn1 [Example 27.5] | 98.4%
32 | COc1cc(-c2cnc(N)c(-c3nc4ncccc4o3)c2)ccc1OCCCCN [Example 43C.30] | 99.0%
33 | Nc1ncc(-c2ccc(OCCCN3CCOCC3)cc2)cc1-c1nc2ncccc2o1 [Example 43B.19] | 95.8%
34 | Nc1ncc(-c2cnn(CCCN3CCC[C@@H]3CO)c2)cc1-c1nc2ccccc2o1 [Example 31.2] | 99.9%
35 | Nc1ncc(-c2ccc(OCCCN3CCS(=O)(=O)CC3)cc2)cc1-c1nc2ncccc2o1 [Example 43B.16] | 95.3%
36 | COc1cc(-c2cnc(N)c(-c3nc4ncccc4o3)c2)ccc1OCCCN1CCN(S(C)(=O)=O)CC1 [Example 43C.15] | 97.2%
37 | CN1CCC(n2cc(-c3cnc(N)c(-c4nc5ccccc5o4)c3)c(N(C)C)n2)CC1 [Example 41.31] | 99.9%
38 | CN1CCN(CCCNC(=O)c2ccc(-c3cnc(N)c(-c4nc5cccnc5o4)c3)cc2)CC1 [Example 45A.58] | 97.0%
39 | CNCCCOc1ccc(-c2cnc(N)c(-c3nc4ncccc4o3)c2)cc1 [Example 43B.32] | 98.6%
40 | Nc1ncc(-c2ccc(CO)s2)cc1-c1nc2ncccc2o1 [Example 10A.19] | 90.1%
41 | COc1cc(-c2cnc(N)c(-c3nc4ncccc4o3)c2)ccc1OCCN1CCCC1 [Example 43C.5] | 99.7%
42 | NCc1ccc(-c2cnc(N)c(-c3nc4ncccc4o3)c2)cc1 [Example 10A.4] | 99.0%
43 | Nc1ncc(-c2ccc(CO)s2)cc1-c1nc2cccnc2o1 [Example 9A.19] | 95.6%
44 | Nc1ncc(-c2ccc(OCCN3CCCC3)cc2)cc1-c1nc2cccnc2o1 [Example 43A.3] | 98.7%
45 | CCOc1nn(C2CCNCC2)cc1-c1cnc(N)c(-c2nc3ccccc3o2)c1 [Example 25.3] | 100.0%
46 | CN(C)CCC(=O)N1CCC(n2cc(-c3cnc(N)c(-c4nc5ncccc5o4)c3)cn2)CC1 [Example 59.6] | 99.9%
47 | CN1CCC(n2cc(-c3cnc(N)c(-c4nc5c(F)cc(F)cc5o4)c3)cn2)CC1 [Example 7.6] | 99.9%

Same assay, conditions: test compound at 1 μM; first value quoted; read-out: % Axl tyrosine kinase inhibition at 1 μM concentration

Row | Compound | inhibition at 1 µM [%]
48 | Nc1ncc(-c2cnn(CCO)c2)cc1-c1nc2ccccc2o1 [Example 28, 2-[4-[6-amino-5-(1,3-benzoxazol-2-yl)-3-pyridyl]pyrazol-1-yl]ethanol] | 99.3
49 | CN1CCC(n2cc(-c3cnc(N)c(-c4nc5c(F)cccc5o4)c3)cn2)CC1 [Example 6, 3-(4-Fluoro-1,3-benzoxazol-2-yl)-5-[1-(1-methyl-4-piperidyl)pyrazol-4-yl]pyridin-2-amine] | 99.9
50 | CCN1CCC(n2cc(-c3cnc(N)c(-c4nc5ncccc5o4)c3)cn2)CC1 [Example 52, 5-[1-(1-ethyl-4-piperidyl)pyrazol-4-yl]-3-oxazolo[4,5-b]pyridin-2-yl-pyridin-2-amine] | 99.8
51 | CN1CCC(n2cc(-c3cnc(N)c(-c4nc5cccc(C#N)c5o4)c3)cn2)CC1 [Example 64, 2-[2-amino-5-[1-(1-methyl-4-piperidyl)pyrazol-4-yl]-3-pyridyl]-1,3-benzoxazole-7-carbonitrile] | 99.1
52 | COCCOC(=O)N1CCC(n2cc(-c3cnc(N)c(-c4nc5ncccc5o4)c3)cn2)CC1 [Example 54, 2-methoxyethyl 4-[4-(6-amino-5-oxazolo[4,5-b]pyridin-2-yl-3-pyridyl)pyrazol-1-yl]piperidine-1-carboxylate] | 99.5
53 | Nc1ncc(-c2cn(C3CCNCC3)nn2)cc1-c1nc2ccccc2o1 [Example 40, 3-(1,3-benzoxazol-2-yl)-5-[1-(4-piperidyl)triazol-4-yl]pyridin-2-amine] | 100
54 | Nc1ncc(-c2cnn(C3CCNCC3)c2)nc1-c1nc2ccc(F)cc2o1 [Example 17A.1, 3-(6-fluoro-1,3-benzoxazol-2-yl)-5-[1-(4-piperidyl)pyrazol-4-yl]pyrazin-2-amine] | 98.5

Same assay, conditions: test compound at 30 μM

Row | Compound | % of Axl tyrosine kinase activity inhibited at a concentration of 30 μM
55 | Nc1ncc(-c2cccc3ccccc23)cc1-c1nc2ccccc2o1 [Example 2.43] | ***the compound disclosed in Example 2.43 inhibited 57% of Axl tyrosine kinase activity at a concentration of 30 μM.

Source: US8017611B2, “Pyridine and pyrazine derivatives -083” (AstraZeneca AB, priority 2007, dated 2011)
